Data as given in patent US7118885B2, “Nucleic acid encoding vitamin D receptor related polypeptide” (Pfizer Inc., priority 1997, dated 2006).

Legend:
[1] = molecular target: T1, GAL4-DBD/VDR-LBD fusion protein (Homo sapiens, UniProt P11473); test: Transient co-transfection of CV-1 cells, GAL4-DBD/VDR-LBD with GAL4-luciferase reporter; assay type: cell-based; details: vitamin D3 1 μM, 48 hours
T1 construct: fusion proteins of the GAL4-DBD fused to the LBD of either the VDR or the VDRR; expressed in transfected cells; host or cells: CV-1 cells
T1 sequence (P11473 127-423 limits assumed): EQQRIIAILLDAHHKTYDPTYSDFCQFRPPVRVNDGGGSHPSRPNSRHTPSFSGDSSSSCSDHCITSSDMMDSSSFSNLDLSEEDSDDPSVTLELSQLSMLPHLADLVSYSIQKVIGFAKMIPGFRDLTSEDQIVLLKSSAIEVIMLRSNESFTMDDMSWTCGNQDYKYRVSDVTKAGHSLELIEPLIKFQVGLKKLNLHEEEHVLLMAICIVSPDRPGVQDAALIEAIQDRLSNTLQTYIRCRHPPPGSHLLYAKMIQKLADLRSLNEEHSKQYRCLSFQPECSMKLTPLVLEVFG
Protocol: (§1) Transient transfections were performed to analyze if vitamin D3 activate the VDRRγ polypeptide. To this end, transient co-tansfections of CV-1 cells were performed with expression plasmids encoding fusion proteins of the GAL4-DBD fused to the LBD of either the VDR or the VDRR together with a reporter-plasmid containing five GAL4 responsive elements upstream of the luciferase gene. After transfection, cells were treated with vehicle (DMSO) alone or with vitamin D3 for 48 hours followed by harvesting of the cells and measurement of the luciferase activity in cell extracts.

[2] = molecular target: T2, GAL4-DBD/VDRRγ-LBD fusion protein (Homo sapiens, UniProt O75469); test: Transient co-transfection of CV-1 cells, GAL4-DBD/VDRRγ-LBD with GAL4-luciferase reporter; assay type: cell-based; details: vitamin D3 1 μM, 48 hours
T2 construct: fusion proteins of the GAL4-DBD fused to the LBD of either the VDR or the VDRR; expressed in transfected cells; host or cells: CV-1 cells
T2 sequence (O75469 146-433 limits assumed): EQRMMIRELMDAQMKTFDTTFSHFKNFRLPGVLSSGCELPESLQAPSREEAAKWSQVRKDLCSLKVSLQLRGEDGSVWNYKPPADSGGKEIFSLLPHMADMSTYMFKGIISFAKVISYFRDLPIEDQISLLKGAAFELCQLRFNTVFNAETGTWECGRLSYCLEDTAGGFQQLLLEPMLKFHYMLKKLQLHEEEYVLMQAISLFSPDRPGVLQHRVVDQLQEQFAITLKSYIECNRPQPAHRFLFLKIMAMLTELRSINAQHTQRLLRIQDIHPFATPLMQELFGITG
Protocol: as §1

VDRRγ = molecular target: T3, VDRRγ (Homo sapiens, UniProt O75469); test: VDRRγ reporter gene assay in transiently transfected Caco-2 (TC7) cells
T3 sequence (O75469 1-434): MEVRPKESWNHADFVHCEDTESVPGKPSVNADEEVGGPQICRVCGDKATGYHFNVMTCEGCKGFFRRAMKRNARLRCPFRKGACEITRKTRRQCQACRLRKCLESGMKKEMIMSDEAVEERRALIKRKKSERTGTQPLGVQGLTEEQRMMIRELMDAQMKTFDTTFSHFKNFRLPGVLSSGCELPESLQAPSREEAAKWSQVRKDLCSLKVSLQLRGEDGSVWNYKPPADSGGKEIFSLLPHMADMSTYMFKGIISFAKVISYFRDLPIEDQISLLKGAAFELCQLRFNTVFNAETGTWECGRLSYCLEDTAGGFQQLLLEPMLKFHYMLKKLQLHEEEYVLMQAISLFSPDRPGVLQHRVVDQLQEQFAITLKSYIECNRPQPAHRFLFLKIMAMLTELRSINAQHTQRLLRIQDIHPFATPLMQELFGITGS
Protocol: For identifying activators or ligands for VDRRγ, a library of substances structurally biased towards different classes of activators and ligands for nuclear receptors were tested. The activation of VDRRγ was analyzed in a reporter gene assay in transiently Caco-2 (TC7) cells (Carriere et al, 1994).

VDRRg = molecular target: T4, VDRRg (Homo sapiens, UniProt O75469); test: Similar reporter assays as used in WO 96/22390; assay type: cell-based; details: data not shown
T4 construct: expressed in transfected cells
T4 sequence (O75469 1-434): T3 sequence (O75469 1-434)

SMILES: C=C1CC[C@H](O)C/C1=C/C=C1\CCC[C@]2(C)[C@@H]([C@H](C)CCCC(C)C)CC[C@@H]12 [vitamin D3]
- transactivation of GAL4-DBD/VDR-LBD (luciferase activity) [1]: transactivate
- transactivation of GAL4-DBD/VDRRγ-LBD (luciferase activity) [2]: not

SMILES: CC(=O)[C@H]1CC[C@H]2[C@@H]3CC[C@H]4CC(=O)CC[C@]4(C)[C@H]3CC[C@]12C [5α-pregnane-3,20-dione]
- activation of VDRRγ (in words) (VDRRγ; Caco-2 (TC7) cells, FIG. 10): did not activate

SMILES: CC(=O)[C@H]1[C@H](C#N)C[C@H]2[C@@H]3CC=C4C[C@@H](O)CC[C@]4(C)[C@H]3CC[C@@]21C [PCN, pregnenolone 16α-carbonitrile]
- activation of VDRRγ (in words) (VDRRγ; Caco-2 cells, 10 μM, FIG. 11): not activated
- activation of human VDRRγ polypeptides (summary statement) (VDRRγ; VDRRγ-1 and VDRRγ-2, no concentration given): not activated

SMILES: CC#C[C@]1(O)CC[C@H]2[C@@H]3CCC4=CC(=O)CCC4=C3[C@@H](c3ccc(N(C)C)cc3)C[C@@]21C [RU486]
- increase in VDRRγ mediated reporter gene activity (VDRRγ): slight increase (two fold)

SMILES: CC(=O)[C@H]1CC[C@H]2[C@@H]3CC[C@@H]4CC(=O)CC[C@]4(C)[C@H]3CC[C@]12C [5β-pregnane-3,20-dione]
- activation of VDRRγ (in words) (VDRRγ; Caco-2 (TC7) cells, FIG. 10): efficient activation

SMILES: CCCCOC(=O)c1ccc(N)cc1 [butyl 4-NH2 Benzoate]
- activation of VDRRg (VDRRg): did not activate
